In one data set the target is rat nNOS (Rattus norvegicus (Rat), UniProt P29476).
Data set [1] relates to eNOS. The settings on record: for Ratios n/e: selectivity nNOS over eNOS.
Data set [2] concerns the target eNOS (Bos taurus, UniProt P29473). The settings on record: read-out: Ki eNOS; Ki from IC50 by Cheng-Prusoff.
Data set [3] addresses T1, iNOS (Mus musculus (Mouse), UniProt P29477). The settings on record: for Ki: read-out: Ki iNOS, Ki from IC50 by Cheng-Prusoff; for Ratios n/i: selectivity nNOS over iNOS.
For the next data set, the system named is caco-2. Description: Caco-2 assay. The data set is classed as in vitro ADME.
A further data set deals with human nNOS (Homo sapiens (Human), UniProt P29475). The settings on record: for Ki: read-out: Ki hnNOS, Ki from IC50 by Cheng-Prusoff.
For data set [4], the system named is panel of other CNS targets, including the muscarinic receptors. Description: Primary binding assays on a panel of other CNS targets (NIMH PDSP). The settings on record: 10 μM concentration.
The target of data set [5] is T1, iNOS. Description: biochemical.
Another data set has as its target CYP3A4 (Homo sapiens (Human), UniProt P08684). Description: CYP3A4 inhibition. It counts as in vitro ADME.
Where [6] appears, read: read-out: Ki nNOS, rat nNOS, Ki from IC50 by Cheng-Prusoff.
[7] abbreviates: rat nNOS, Ki from IC50 by Cheng-Prusoff.

The structures appear in SMILES notation. Entries after “also recorded” stand apart in the source; their conditions may differ. Where two headings read alike, the source gives them in different places.

The text below walks through data of patent publication US9878996B2, “2-imidazolyl-pyrimidine scaffolds as potent and selective inhibitors of neuronal nitric oxide synthase” (Northwestern University, priority 2014, dated 2018).

In general, IC50 refers to the concentration at which inhibition is half-maximal.

Sequence of eNOS (Bos taurus, UniProt P29473) (P29473 2-1205 limits assumed): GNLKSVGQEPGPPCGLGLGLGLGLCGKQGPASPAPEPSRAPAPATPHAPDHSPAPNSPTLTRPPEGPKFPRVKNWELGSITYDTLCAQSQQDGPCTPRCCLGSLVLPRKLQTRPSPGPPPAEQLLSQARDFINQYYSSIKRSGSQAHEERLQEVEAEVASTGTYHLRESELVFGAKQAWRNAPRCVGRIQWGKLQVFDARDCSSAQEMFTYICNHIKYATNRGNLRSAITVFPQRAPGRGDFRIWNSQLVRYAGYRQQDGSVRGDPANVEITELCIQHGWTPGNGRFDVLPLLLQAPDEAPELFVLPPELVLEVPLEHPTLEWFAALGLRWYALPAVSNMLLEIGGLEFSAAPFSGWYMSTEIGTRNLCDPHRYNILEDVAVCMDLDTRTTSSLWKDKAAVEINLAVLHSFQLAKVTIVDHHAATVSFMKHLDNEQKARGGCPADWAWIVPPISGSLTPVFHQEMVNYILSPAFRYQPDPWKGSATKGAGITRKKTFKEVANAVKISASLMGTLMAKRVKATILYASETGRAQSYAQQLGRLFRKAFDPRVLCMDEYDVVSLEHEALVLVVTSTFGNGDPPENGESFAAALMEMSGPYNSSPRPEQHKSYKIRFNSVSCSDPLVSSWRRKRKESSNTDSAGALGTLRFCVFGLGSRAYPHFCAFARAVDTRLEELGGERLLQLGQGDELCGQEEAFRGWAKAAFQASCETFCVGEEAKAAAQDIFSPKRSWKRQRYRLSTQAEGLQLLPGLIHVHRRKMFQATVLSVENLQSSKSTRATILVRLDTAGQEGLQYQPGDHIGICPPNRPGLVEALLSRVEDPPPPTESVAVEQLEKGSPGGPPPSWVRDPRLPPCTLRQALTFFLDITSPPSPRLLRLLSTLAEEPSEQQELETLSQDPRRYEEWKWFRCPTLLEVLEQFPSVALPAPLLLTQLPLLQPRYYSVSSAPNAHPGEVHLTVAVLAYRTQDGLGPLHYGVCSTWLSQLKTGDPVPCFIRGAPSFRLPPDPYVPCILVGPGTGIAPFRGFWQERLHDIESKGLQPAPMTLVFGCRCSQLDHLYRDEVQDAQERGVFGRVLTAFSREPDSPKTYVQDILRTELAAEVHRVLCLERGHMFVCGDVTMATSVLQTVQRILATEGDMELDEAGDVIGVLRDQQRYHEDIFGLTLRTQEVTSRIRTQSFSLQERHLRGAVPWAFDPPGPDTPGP
Sequence of CYP3A4 (P08684 whole entry, species assumed): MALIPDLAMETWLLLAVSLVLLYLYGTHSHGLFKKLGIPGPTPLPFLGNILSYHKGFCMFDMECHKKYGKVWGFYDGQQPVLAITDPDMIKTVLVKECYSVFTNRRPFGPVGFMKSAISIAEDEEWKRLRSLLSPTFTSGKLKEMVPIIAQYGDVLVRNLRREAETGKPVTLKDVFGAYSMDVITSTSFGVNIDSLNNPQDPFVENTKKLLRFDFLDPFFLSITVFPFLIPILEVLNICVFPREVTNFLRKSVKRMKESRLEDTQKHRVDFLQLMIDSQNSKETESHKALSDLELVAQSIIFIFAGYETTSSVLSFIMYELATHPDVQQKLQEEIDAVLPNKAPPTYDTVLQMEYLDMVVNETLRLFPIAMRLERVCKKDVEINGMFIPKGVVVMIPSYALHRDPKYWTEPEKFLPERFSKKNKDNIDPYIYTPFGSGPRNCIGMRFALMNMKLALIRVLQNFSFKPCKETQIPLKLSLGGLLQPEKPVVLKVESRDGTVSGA

With `Fc1cccc(CCN2CCN(c3ccnc(-n4ccnc4)n3)CC2)c1` [Compound 2], the Ki at rat nNOS (setting [6]) is 4.7 µM.

For `Fc1cccc(CCNCCNc2ccnc(-n3ccnc3)n2)c1` [Compound 3], the “Ki nNOS” value at rat nNOS (setting [7]) is given as “moderate submicromolar”. The Ki at rat nNOS (setting [6]) amounted to 0.37 µM. In addition, in the data set with eNOS [1], the “selectivity over eNOS” value is on record as greater than 100 fold and the Ratios n/e is recorded as 109. The Ki on eNOS [2] amounted to 40 µM. Moreover, at iNOS [3], the “selectivity over iNOS” value was found to be 17 fold, the Ki was found to be 6.4 µM and the Ratios n/i was 17.

Consider `Fc1cccc(CCNCc2ccnc(-n3ccnc3)n2)c1` [Compound 4], for which, at rat nNOS (setting [6]), the Ki is 8.7 µM.

Take `Fc1cccc(CCCNCc2ccnc(-n3ccnc3)n2)c1` [Compound 5]: the Ki was found to be 2.7 µM at rat nNOS (setting [6]), 90 µM at eNOS [2] and 10.5 µM on iNOS [3]. Also, the Ratios n/e in the data set with eNOS [1] is given as 33. The Ratios n/i on iNOS [3] turned out to be 4.

In the case of `Fc1cccc(CCNCCc2ccnc(-n3ccnc3)n2)c1` [Compound 6], the Ki at eNOS [2] is 4 µM; on iNOS [3], 1.1 µM.

On to `Fc1cccc(CCCNCCc2ccnc(-n3ccnc3)n2)c1` [Compound 7], for which the Ki is 0.019 µM at rat nNOS (setting [6]), 4.95 µM at eNOS [2], 0.77 µM on iNOS [3] and 0.193 µM at human nNOS. The “membrane / cellular permeability” value in the data set on caco-2 is listed as “good cellular permeability; also recorded: has membrane permeability”. Further, the “inhibition of other CNS targets” value in data set [4] is on record as “minimal inhibition for most of them”.

Regarding `Clc1cccc(CCCNCCc2ccnc(-n3ccnc3)n2)c1` [Compound 25], the Ki at rat nNOS (setting [6]) was 0.032 µM; at iNOS [5] it was 2 µM; at eNOS [2], 8.1 µM; on human nNOS, 0.125 µM. Also, the Ratios n/e in the data set on eNOS [1] amounted to 253. Further, on iNOS [3], the Ratios n/i is reported as 28.

For `Fc1cccc(C2CC2CNCCc2ccnc(-n3ccnc3)n2)c1` (centres unmarked) [Compound 26], the Ki on rat nNOS (setting [6]) is 0.056 µM; on eNOS [2] it was 4 µM; at iNOS [3], 1.9 µM; at human nNOS it was 0.359 µM. Besides, the Ratios n/e in the data set with eNOS [1] came to 71. For the same compound, the Ratios n/i on iNOS [3] was 34.

`Fc1cccc(CC2CC2NCCc2ccnc(-n3ccnc3)n2)c1` (centres unmarked) [Compound 27]: the results for the Ki at rat nNOS (setting [6]), on eNOS [2] and at human nNOS were 0.04 µM, 14.5 µM and 0.358 µM, respectively.

For `N#Cc1cccc(CNCCc2ccnc(-n3ccnc3)n2)c1` [Compound 28], the Ki on rat nNOS (setting [6]) was determined as 0.183 µM; at eNOS [2], 10.5 µM; at iNOS [3], 3.4 µM; at human nNOS, 0.138 µM.

As to `c1cncc(CCCNCCc2ccnc(-n3ccnc3)n2)c1` [Compound 29], on rat nNOS (setting [7]), the “Ki nNOS” value was “good potency”. The Ki was 0.054 µM on rat nNOS (setting [6]), 10.9 µM at eNOS [2] and 0.125 µM at human nNOS. Also, the “Ki hnNOS” value at human nNOS (Ki from IC50 by Cheng-Prusoff) is listed as “good potency”.

For `Fc1cccc(CCCNCCc2ccnc(-n3ccnn3)n2)c1` [Compound 30], the Ki on rat nNOS (setting [6]) is 60 µM.

For the compound `Cc1cn(-c2nccc(CCNCCCc3cccc(F)c3)n2)cn1` [Compound 31], half-maximal inhibition on CYP3A4 (IC50) was put at 15 µM. Besides, the Ki on rat nNOS (setting [6]) is 0.667 µM; on rat nNOS (read-out: potency for nNOS), 0.667 µM; at iNOS [5], 287 µM; at human nNOS, 4.49 µM. Also, the Ratios n/e in the data set on eNOS [1] was 256. Also, the Ratios n/i at iNOS [3] was 430.

Regarding `Fc1cccc(CCNCCc2cncc(-n3ccnc3)c2)c1` [Compound 48], the Ki at rat nNOS (setting [6]) worked out at 5.5 µM.
